Experimental data published in patent US20260191861A1, “INFLAMMASOME AND VEGF INHIBITION FOR RETINAL VASCULAR DISEASES” (University of Virginia Patent Foundation, priority 2022, published 2026).

Assays:
[1] = test system: participants with diabetic macular edema; experiment: Retinal central subfield thickness by spectral-domain OCT, including synthetic controls from DRCR.net Protocol T; assay type: in vivo, human
Procedure: Propensity score methods were used to select DRCR.net Protocol T study participants similar to lamivudine-treated patients. Inverse probability treatment weights (IPTW) and propensity score matching were used. To estimate the IPTW weights, a multinomial logistic regression was used to estimate propensity scores using important predictors including baseline visual acuity and baseline central subfield thickness along with age, gender, and duration of diabetes. Weights were calculated as the reciprocal of the estimated propensity score of the actual treatment received. Weights were then truncated at the 99th percentile. For the propensity score matched analysis, lamivudine-treated patients were matched to each DRCR.net Protocol T treatment arm (aflibercept, bevacizumab, ranibizumab) and placebo group, separately. Due to the limited sample size for matching within each group, propensity score models included the most important predictors of acuity change including baseline visual acuity, age and duration of diabetes.
For the IPTW analysis, a mixed-effects weighted model was fit with subject-specific random effects. […] The model's estimates, confidence intervals (CI), and P values were reported for each predictor. Additionally, model-based contrasts were conducted to compare the change in VALS from baseline between lamivudine and the Protocol T treatments.
Secondary outcomes included the change in central subfield thickness, the percentage of eyes with an improvement in VALS of 15 or more, the correlation between improvements in visual acuity and central subfield thickness, and systemic and ocular adverse events. Change in central subfield thickness was estimated using mixed-effects models, similar to the VALS analysis. To analyze a VALS improvement of at least 15 letters, logistic regression using generalized estimating equations (GEEs) was specified with an exchangeable correlation matrix. Model-based contrasts were estimated to make pairwise treatment comparisons.
In all consultations, patients underwent tomography with the Spectralis device (Heidelberg) under mydriasis. The acquisition protocol was the 6×6 mm region centered on the fovea. Data analysis from SD-OCT was restricted to the central field (1 mm in diameter) Intravitreous Injection of Anti-VEGF

[2] = test system: photoreceptors (TUNEL+ cells in the ONL); experiment: RRD model: TUNEL assay of the retinal outer nuclear layer; assay type: in vivo, mouse; conditions: day 3 RRD, equimolar IP doses twice daily (K-9H 60 mg/kg, 3TC 50 mg/kg)
Procedure: All experiments involving animals were approved by the University of Virginia Institutional Animal Care and Use Committee (IACUC) and adhered to the Association for Research in Vision and Ophthalmology (ARVO) Statement for the Use of Animals in Ophthalmic and Vision Research. Animal subjects were male and female mice aged 6 to 10 weeks. Wild type C57BL/6J mice were obtained from the Jackson Laboratory (Bar Harbor, ME, USA). To anesthetize mice for study procedures, ketamine hydrochloride (100 mg/kg; Ft. Dodge Animal Health, Overland Park, KS, USA) and xylazine (10 mg/kg; Phoenix Scientific, St. Joseph, MO, USA) were delivered by intraperitoneal (IP) injection. Pupils were dilated with topical 1% tropicamide and 2.5% phenylephrine (Alcon Laboratories, Ft. Worth, TX, USA).
RRD model was established by subretinal injection (SRI) of 3 μl 1% carboxymethyl cellulose (CMC; Refresh Liquigel, Allergan, Irvine, CA, USA).
NRTIs and K-9 were delivered via intraperitoneal (IP) injection in equimolar amounts. […] Kamuvudine K-9 (3-methyl-3TC, MW=273 g/mol) was administered either at a low dose (K-9L; 90 mg/kg daily) or a high dose (K-9H; 60 mg/kg twice daily, equimolar to NRTI doses). IP injection of phosphate buffered saline (PBS) was used as control.
Retinal cross cryosections at a thickness of 10 μm were stained with TUNEL (TdT-mediated dUTP nick-end labeling) using the In Situ Cell Death Detection Kit (Roche Diagnostics, Indianapolis, IN, USA) according to the manufacturer's′ instructions. The sections were wet-mounted with ProLong anti-fade reagent with DAPI (P36935, ThermoFisher Scientific, Waltham, MA, USA) and visualized using an A1R laser confocal microscope (Nikon, Tokyo, Japan). Fourteen representative sections, including the optic nerve, were used per treatment group. To calculate the number of TUNEL+ cells in the outer nuclear layer (ONL), the retina analysis toolkit of ImageJ (2.1.0; NIH, Bethesda, MD, USA) was used.

With `Nc1ccn([C@@H]2CS[C@H](CO)O2)c(=O)n1` [Lamivudine] the “IPTW mixed-effect model: change in central subfield thickness, Treatment × week [8] estimate” value ([1]; IPTW model, interaction term) was 41.98 μm, the “IPTW mixed-effect model: change in central subfield thickness from baseline, treatment estimate (ref = Placebo)” value ([1]; IPTW model, main effect (week 4)) was −48.84 μm and the “IPTW contrast: change in central subfield thickness, Lamivudine vs Bevacizumab” value ([1]; week 4) was 17.5 μm. For the same compound, the “IPTW contrast: change in central subfield thickness, Lamivudine vs Placebo” value ([1]; week 4) was −48.84 μm, the “IPTW contrast: change in central subfield thickness, Lamivudine vs. Aflibercept” value ([1]; week 4) was 55.49 μm and the “IPTW contrast: change in central subfield thickness, Lamivudine vs. Ranibizumab” value ([1]; week 4) was 64.83 μm. For the same compound, the “IPTW contrast: change in central subfield thickness, Lamivudine vs. Aflibercept” value ([1]; week 4, listed as lamivudine) was 55 μm, the “IPTW contrast: change in central subfield thickness, Lamivudine vs. Ranibizumab” value ([1]; week 4, listed as lamivudine) was 65 μm and the “IPTW contrast: change in central subfield thickness, Lamivudine vs Bevacizumab” value ([1]; week 8) was −15.34 μm. The “IPTW contrast: change in central subfield thickness, Lamivudine vs Placebo” value ([1]; week 8) was −6.86 μm, the “IPTW contrast: change in central subfield thickness, Lamivudine vs. Aflibercept” value ([1]; week 8) was 28.93 μm and the “IPTW contrast: change in central subfield thickness, Lamivudine vs. Ranibizumab” value ([1]; week 8) was 31.81 μm. For the same compound, the “Propensity score matched contrast: change in central subfield thickness, Lamivudine vs. Aflibercept” value ([1]; week 4) was 92.6 μm, the “Propensity score matched contrast: change in central subfield thickness, Lamivudine vs. Bevacizumab” value ([1]; week 4) was 12.6 μm and the “Propensity score matched contrast: change in central subfield thickness, Lamivudine vs. Placebo” value ([1]; week 4) was −47.7 μm. For the same compound, the “Propensity score matched contrast: change in central subfield thickness, Lamivudine vs. Ranibizumab” value ([1]; week 4) was 115.7 μm, the “Propensity score matched contrast: change in central subfield thickness, Lamivudine vs. Aflibercept” value ([1]; week 4, listed as lamivudine) was 93 μm and the “Propensity score matched contrast: change in central subfield thickness, Lamivudine vs. Ranibizumab” value ([1]; week 4, listed as lamivudine) was 116 μm. For the same compound, the “Propensity score matched contrast: change in central subfield thickness, Lamivudine vs. Aflibercept” value ([1]; week 8) was 21.2 μm, the “Propensity score matched contrast: change in central subfield thickness, Lamivudine vs. Bevacizumab” value ([1]; week 8) was −63.4 μm and the “Propensity score matched contrast: change in central subfield thickness, Lamivudine vs. Placebo” value ([1]; week 8) was −38.1 μm. The “Propensity score matched contrast: change in central subfield thickness, Lamivudine vs. Ranibizumab” value ([1]; week 8) was 37.1 μm, the “Mixed-effect model: change in central subfield thickness, Treatment × week [8] estimate” value ([1]; unweighted model, interaction term) was 3.8 μm and the “Mixed-effect model: change in central subfield thickness from baseline, treatment estimate (ref = Placebo)” value ([1]; unweighted model, main effect (week 4)) was −44.91 μm. For the same compound, the “Contrast: change in central subfield thickness, Lamivudine vs Bevacizumab” value ([1]; unweighted model, week 4) was 30.65 μm, the “Contrast: change in central subfield thickness, Lamivudine vs Placebo” value ([1]; unweighted model, week 4) was −44.91 μm and the “Contrast: change in central subfield thickness, Lamivudine vs. Aflibercept” value ([1]; unweighted model, week 4) was 69.64 μm. The “Contrast: change in central subfield thickness, Lamivudine vs. Ranibizumab” value ([1]; unweighted model, week 4) was 77.22 μm, the “Contrast: change in central subfield thickness, Lamivudine vs Bevacizumab” value ([1]; unweighted model, week 8) was −50.42 μm and the “Contrast: change in central subfield thickness, Lamivudine vs Placebo” value ([1]; unweighted model, week 8) was −41.1 μm. For the same compound, the “Contrast: change in central subfield thickness, Lamivudine vs. Aflibercept” value ([1]; unweighted model, week 8) was −1.39 μm, the “Contrast: change in central subfield thickness, Lamivudine vs. Ranibizumab” value ([1]; unweighted model, week 8) was −4.66 μm and the “percentage of eyes with VALS improvement of 15 or more that had minimal improvement in central subfield thickness (≤50 μm)” value ([1]; week 8, lamivudine group) was 64%. For the same compound, the “degree of photoreceptor protection” value [2] was 38%+10%.
